Values after ≈ are worked out from the molar mass of the structure shown.
Tests used:
[1] = Determination of the solubility; assay type: physicochemical; conditions: aqueous buffer, kinetic from dmso stock; PBS buffer pH 6.5, 20° C., 24 hours shaking, from DMSO solution
Procedure: B-6. Determination of the Solubility
Reagents Required: • PBS buffer pH 6.5: 90.00 g of NaCl p.a. (for example from Merck, Art. No. 1.06404.1000), 13.61 g of KH2PO4 p.a. (for example from Merck, Art. No. 1.04873.1000) and 83.35 g of 1N aqueous sodium hydroxide solution (for example from Bernd Kraft GmbH, Art. No. 01030.4000) are weighed into a 1 liter measuring flask, the flask is filled with distilled water to 1 liter and the mixture is stirred for 1 hour. Using 1N hydrochloric acid (for example from Merck, Art. No. 1.09057.1000) the pH is then adjusted to 6.5. • PEG/water solution (30:70 v/v): 30 ml of polyethylene glycol 400 (for example from Merck, Art. No. 8.17003.1000) and 70 ml of distilled water are homogenized in a 100 ml measuring flask. • PEG/PBS buffer pH 6.5 (80:20 v/v): 80 ml of polyethylene glycol 400 (for example from Merck, Art. No. 8.17003.1000) and 20 ml of PBS buffer pH 6.5 are homogenized in a 100 ml measuring flask. • Dimethyl sulphoxide (for example from Baker, Art. No. 7157.2500) • Distilled water.
Preparation of the Starting Solution (Original Solution):
At least 4 mg of the test substance are weighed accurately into a wide-necked 10 mm screw V vial (from Glastechnik Gräfenroda GmbH, Art. No. 8004-WM-H/V150 with fitting screw cap and septum, in a pipetting robot DMSO is added to a concentration of 50 mg/ml and the mixture is shaken for 10 minutes.
Preparation of the Calibration Solutions:
Preparation of the starting solution for calibration solutions (stock solution): With the aid of a pipetting robot, 10 μl of the original solution are transferred into a microtiter plate and made up with DMSO to a concentration of 600 μg/ml. The sample is shaken until everything has gone into solution.
Calibration solution 1 (20 μg/ml): 1000 μl of DMSO are added to 34.4 μl of the stock solution, and the mixture is homogenized.
Calibration solution 2 (2.5 μg/ml): 700 μl of DMSO are added to 100 μl of calibration solution 1, and the mixture is homogenized.
Preparation of the Sample Solutions:
Sample solution for solubilities of up to 5 g/liter in PBS buffer pH 6.5: 10 μl of the original solution are transferred into a microtiter plate, and 1000 μl of PBS buffer pH 6.5 are added.
The sample solutions prepared in this manner are shaken at 1400 rpm in a temperature-adjustable shaker (for example Eppendorf Thermomixer comfort Art. No. 5355 000.011 with interchangeable block Art. No. 5362.000.019) at 20° C. for 24 hours. In each case 180 μl are taken from these solutions and transferred into Beckman Polyallomer Centrifuge Tubes (Art. No. 343621). These solutions are centrifuged at about 223 000×g for one hour (for example Beckman Optima L-90K Ultracentrifuge with Type 42.2 Ti Rotor at 42 000 rpm). From each of the sample solutions, 100 μl of the supernatant are removed and diluted 1:5 and 1:100 with DMSO. From each dilution, a sample is transferred into a vessel suitable for HPLC analysis.
The samples are analysed by RP-HPLC. Quantification is carried out using a two-point calibration curve of the test compound in DMSO. The solubility is expressed in mg/liter. Analysis sequence: 1) calibration solution […]; 2) calibration solution 20 μg/ml; 3) sample solution 1:5; 4) sample solution 1:100.
Agilent 1100 with DAD (G1315A), quat. pump (G1311A), autosampler CTC HTS PAL, degasser (G1322A) and column thermostat (G1316A); column: Phenomenex Gemini C18, 50 mm×2 mm, 5μ; temperature: 40° C.; mobile phase A: water/phosphoric acid pH 2; mobile phase B: acetonitrile; flow rate: 0.7 ml/min; gradient: 0-0.5 min 85% A, 15% B; ramp: 0.5-3 min 10% A, 90% B; 3-3.5 min 10% A, 90% B; ramp: 3.5-4 min 85% A, 15% B; 4-5 min 85% A, 15% B. […]

human V1a receptor = target: T1, human V1a receptor (Homo sapiens, UniProt P37288); assay: Cellular in vitro assay for determining the vasopressin receptor activity (aequorin luminescence, recombinant CHO cells), human V1a; assay type: cell-based; conditions: CHO cells expressing aequorin, transfected with human V1a receptor; agonist [Arg8]-vasopressin; read-out: IC50 hV1a
T1 construct: expressed in transfected cells; host or cells: CHO K1 (ATCC), constitutively expressing modified aequorin
T1 sequence (P37288 whole entry): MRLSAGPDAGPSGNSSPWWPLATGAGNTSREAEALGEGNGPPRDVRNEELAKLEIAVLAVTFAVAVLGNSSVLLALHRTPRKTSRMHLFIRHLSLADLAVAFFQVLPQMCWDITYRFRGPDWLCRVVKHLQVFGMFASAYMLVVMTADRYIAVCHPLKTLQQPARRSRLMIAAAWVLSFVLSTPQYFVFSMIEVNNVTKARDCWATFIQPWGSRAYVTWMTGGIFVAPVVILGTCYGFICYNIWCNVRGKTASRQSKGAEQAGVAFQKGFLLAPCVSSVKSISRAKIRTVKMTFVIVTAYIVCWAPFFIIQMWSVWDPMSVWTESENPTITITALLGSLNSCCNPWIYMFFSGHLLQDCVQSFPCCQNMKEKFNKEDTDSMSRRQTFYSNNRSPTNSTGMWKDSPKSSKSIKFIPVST
Text: (§1) B-1. Cellular In Vitro Assay for Determining the Vasopressin Receptor Activity
(§2) The identification of agonists and antagonists of the V1a and V2 vasopressin receptors from humans and rats and also the quantification of the activity of the substances described here takes place using recombinant cell lines. These cells derive originally from a hamster's ovary epithelial cell (Chinese Hamster Ovary, CHO K1, ATCC: American Type Culture Collection, Manassas, Va. 20108, USA). The test cell lines constitutively express a modified form of the calcium-sensitive photoprotein aequorin, which, after reconstitution with the cofactor coelenterazine, emits light when there are increases in the free calcium concentration (Rizzuto R., Simpson A. W., Brini M., Pozzan T.; Nature 358 (1992) 325-327). In addition, the cells are stably transfected with the human or rat V1a or V2 receptors. In the case of the Gs-coupling V2 receptors, the cells are stably transfected with a further gene, which codes for the promiscuous Gα16 protein (Amatruda T. T., Steele D. A., Slepak V. Z., Simon M A., Proc. Na. Acad. Sci. USA 88 (1991), 5587-5591), either independently or as a fusion gene. The resulting vasopressin receptor test cells react to stimulation of the recombinantly expressed vasopressin receptors by intracellular release of calcium ions, which can be quantified by the resulting aequorin luminescence using a suitable luminometer (Milligan G., Marshall F., Rees S., Trends in Pharmaco. Sci. 17 (1996) 235-237).
(§3) On the day before the assay, the cells are plated out in culture medium (DMEM, 10% FCS, 2 mM glutamine, 10 mM HEPES) in 384-well microtiter plates and kept in a cell incubator (96% atmospheric humidity, 5% v/v carbon dioxide, 37° C.). On the day of the assay, the culture medium is replaced by a Tyrode solution (140 mM sodium chloride, 5 mM potassium chloride, 1 mM magnesium chloride, 2 mM calcium chloride, 20 mM glucose, 20 mM HEPES), which additionally contains the cofactor coelenterazine (50 μM), and the microtiter plate is then incubated for a further 3-4 hours. The test substances in various concentrations are placed for 10 to 20 minutes in the wells of the microtiter plate before the agonist [Arg8]-vasopressin is added, and the resulting light signal is measured immediately in the luminometer. The IC50 values are calculated using the GraphPad PRISM computer program (Version 3.02).
(§4) Table A below lists representative IC50 values for the compounds according to the invention transfected with the human V1a or V2 receptor: […]

human V2 receptor = target: T2, human V2 receptor (Homo sapiens, UniProt P30518); assay: Cellular in vitro assay for determining the vasopressin receptor activity (aequorin luminescence, recombinant CHO cells), human V2; assay type: cell-based; conditions: CHO cells expressing aequorin and Gα16, transfected with human V2 receptor; agonist [Arg8]-vasopressin; read-out: IC50 hV2
T2 construct: expressed in transfected cells; host or cells: CHO K1 (ATCC), constitutively expressing modified aequorin, co-transfected with promiscuous G-alpha-16
T2 sequence (P30518 whole entry): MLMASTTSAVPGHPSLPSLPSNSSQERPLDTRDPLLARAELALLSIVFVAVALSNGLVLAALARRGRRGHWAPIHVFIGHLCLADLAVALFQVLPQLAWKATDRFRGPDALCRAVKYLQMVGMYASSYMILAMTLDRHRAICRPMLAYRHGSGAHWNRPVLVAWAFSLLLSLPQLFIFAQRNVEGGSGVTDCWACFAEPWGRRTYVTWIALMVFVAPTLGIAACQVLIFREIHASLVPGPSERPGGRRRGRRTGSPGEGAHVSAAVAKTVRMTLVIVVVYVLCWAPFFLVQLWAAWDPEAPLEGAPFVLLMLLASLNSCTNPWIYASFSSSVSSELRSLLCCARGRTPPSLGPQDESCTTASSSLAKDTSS
Text: as §1, §2, §3, §4

Structure (SMILES) | solubility at 24 h [1] [µg/mL] | IC50 (human V1a receptor) [nM] | IC50 (human V2 receptor) [nM]
O=C(Cn1nc(-c2ccc(Cl)cc2)n(C2CC2)c1=O)NC(C(=O)NC1(C(=O)O)CC1)c1cccc(C(F)(F)F)c1 (racemic) [Example 6, 1-({({[3-(4-Chlorophenyl)-4-cyclopropyl-5-oxo-4,5-dihydro-1H-1,2,4-triazol-1-yl]acetyl}-amino)[3-(trifluoromethyl)phenyl}acetyl]amino)cyclopropanecarboxylic acid] | 340 (≈ 588 µM) | 47 | 324
COCCn1c(-c2ccc(Cl)s2)nn(CC(=O)NC(C(=O)NC(C)(C)C(=O)O)c2cccc(C(F)(F)F)c2)c1=O (racemic) [Example 10, N-{({[3-(5-Chloro-2-thienyl)-4-(2-methoxyethyl)-5-oxo-4,5-dihydro-1H-1,2,4-triazol-1-yl]acetyl}-amino) [3-(trifluoromethyl)phenyl}acetyl]-2-methylalanine] | 360 (≈ 596 µM) | 150 | 960
CC(C)(NC(=O)C(NC(=O)Cn1nc(-c2ccc(Cl)cc2)n(/C=C/C(F)(F)F)c1=O)c1ccccc1C(F)(F)F)C(N)=O (racemic) [Example 31, N^2-{[({3-(4-Chlorophenyl)-5-oxo-4-[(1E)-3,3,3-trifluoroprop-1-en-1-yl]-4,5-dihydro-1H-1,2,4-triazol-1-yl}acetyl)amino][2-(trifluoromethyl)phenyl]acetyl}-2-methylalaninamide] | 110 (≈ 174 µM) | 7.8 | 1180
CC(C)(NC(=O)[C@](C)(NC(=O)Cn1nc(-c2ccc(Cl)cc2)n(C[C@H](O)C(F)(F)F)c1=O)c1cccc(C(F)(F)F)c1)C(=O)O [Example 21, N-{(2R)-2-[({3-(4-Chlorophenyl)-5-oxo-4-[(2S)-3,3,3-trifluoro-2-hydroxypropyl]-4,5-dihydro-1H-1,2,4-triazol-1-yl}acetyl)amino]-2-[3-(trifluoromethyl)phenyl]propanoyl}-2-methylalanine] | 360 (≈ 541 µM) | 1 | 0.8
O=C(Cn1nc(-c2ccc(Cl)cc2)n(C[C@H](O)C(F)(F)F)c1=O)NC(C(=O)NCCO)c1cccc(OC(F)(F)F)c1 (stereo partly drawn) [Example 52, 2-[({3-(4-Chlorophenyl)-5-oxo-4-[(2S)-3,3,3-trifluoro-2-hydroxypropyl]-4,5-dihydro-1H-1,2,4-triazol-1-yl}acetyl)amino]-N-(2-hydroxyethyl)-2-[3-(trifluoromethoxy)phenyl]acetamide] | 100 (≈ 160 µM) | 9.7 | 42
O=C(C[C@H](NC(=O)Cn1nc(-c2ccc(Cl)cc2)n(C[C@H](O)C(F)(F)F)c1=O)c1cccc(C(F)(F)F)c1)NCCO [Example 54, (3S)-3-[({3-(4-Chlorophenyl)-5-oxo-4-[(2S)-3,3,3-trifluoro-2-hydroxypropyl]-4,5-dihydro-1H-1,2,4-triazol-1-yl}acetyl)amino]-N-(2-hydroxyethyl)-3-[3-(trifluoromethyl)phenyl]propanamide] | 400 (≈ 641 µM) | 3.8 | 2.6

From patent US9034855B2, “Substituted phenylacetate and phenylpropane amides and use thereof” (Bayer Intellectual Property GmbH, priority 2010, dated 2015)
